According to patent US5593984A, “Cephalosporin derivatives” (Yuhan Corporation, priority 1992, dated 1997):
Values after ≈ are worked out from the molar mass of the structure shown.

How the values were obtained:
Type in all cases: cell-based
Prov. stuartii IFO 12930 = assay: MIC by agar dilution, Prov. stuartii IFO 12930; conditions: Providencia stuartii, IFO12930, 17 h, Mueller-Hinton agar, read-out: Minimal Inhibitory Concentration (MIC)
Method: (§1) These MIC values were determined by agar dilution method: that is, two-fold dilutions of each of the test compounds were made and dispersed in a Mueller-Hinton agar medium; standard test strain which had the 10^6 CFU (Colony Forming Unit) per ml was inoculated on the medium with microplanter (Toyo, Japan), and incubated at 35°-37° C. for 17±1 hours. The structures of Ceftazidime (CAZ) and Cefotaxime (CTX) which are used as control compounds are as follows: [drawing 12]

Staph. aureus C-57 = assay: MIC by agar dilution, Staph. aureus C-57; conditions: Staphylococcus aureus, C57, 17 h, Mueller-Hinton agar, read-out: Minimal Inhibitory Concentration (MIC)
Method: as §1

Ent. aerogenes IFO 12979 = assay: MIC by agar dilution, Ent. aerogenes IFO 12979; conditions: Klebsiella aerogenes, IFO12979, 17 h, Mueller-Hinton agar, read-out: Minimal Inhibitory Concentration (MIC)
Method: as §1

[1] = tested on: Ps. aeruginosa ATCC 10145; assay: MIC by agar dilution, Ps. aeruginosa ATCC 10145; conditions: Pseudomonas aeruginosa, ATCC10145, 17 h, Mueller-Hinton agar, read-out: Minimal Inhibitory Concentration (MIC)
Method: as §1

Staph. aureus ATCC 6538P = assay: MIC by agar dilution, Staph. aureus ATCC 6538P; conditions: Staphylococcus aureus, ATCC6538P, 17 h; Staph. aureus ATCC 6538P; agar dilution, Mueller-Hinton agar; read-out: Minimal Inhibitory Concentration (MIC)
Method: as §1

Staph. aureus C-5113 = assay: MIC by agar dilution, Staph. aureus C-5113; conditions: Staphylococcus aureus, C5113, 17 h, Mueller-Hinton agar, read-out: Minimal Inhibitory Concentration (MIC)
Method: as §1

B. subtilis ATCC 6633 = assay: MIC by agar dilution, B. subtilis ATCC 6633; conditions: Bacillus subtilis, ATCC6633, 17 h; B. subtilis ATCC 6633; agar dilution, Mueller-Hinton agar; read-out: Minimal Inhibitory Concentration (MIC)
Method: as §1

E. coli DY-1 = assay: MIC by agar dilution, E. coli DY-1; conditions: Escherichia coli, DY1, 17 h; E. coli DY-1; agar dilution, Mueller-Hinton agar; read-out: Minimal Inhibitory Concentration (MIC)
Method: as §1

Ent. cloacae IFO 13535 = assay: MIC by agar dilution, Ent. cloacae IFO 13535; conditions: Enterobacter cloacae, IFO13535, 17 h; Ent. cloacae IFO 13535; agar dilution, Mueller-Hinton agar; read-out: Minimal Inhibitory Concentration (MIC)
Method: as §1

[2] = tested on: S. epidermidis ATCC 12228; assay: MIC by agar dilution, S. epidermidis ATCC 12228; conditions: Staphylococcus epidermidis, ATCC12228, 17 h; S. epidermidis ATCC 12228; agar dilution, Mueller-Hinton agar; read-out: Minimal Inhibitory Concentration (MIC)
Method: as §1

E. coli NIHJ JC-2 = assay: MIC by agar dilution, E. coli NIHJ JC-2; conditions: Escherichia coli, NIHJJC2, 17 h; E. coli NIHJ JC-2; agar dilution, Mueller-Hinton agar; read-out: Minimal Inhibitory Concentration (MIC)
Method: as §1

Ps. aeruginosa DY-2 = assay: MIC by agar dilution, Ps. aeruginosa DY-2; conditions: Pseudomonas aeruginosa, DY2, 17 h; Ps. aeruginosa DY-2; agar dilution, Mueller-Hinton agar; read-out: Minimal Inhibitory Concentration (MIC)
Method: as §1

Staph. aureus Smith = assay: MIC by agar dilution, Staph. aureus Smith; conditions: Staphylococcus aureus, 17 h, Mueller-Hinton agar, read-out: Minimal Inhibitory Concentration (MIC)
Method: as §1

E. coli No. 29 = assay: MIC by agar dilution, E. coli No. 29; conditions: Escherichia coli, 17 h; E. coli No. 29; agar dilution, Mueller-Hinton agar; read-out: Minimal Inhibitory Concentration (MIC)
Method: as §1

M. morganii DY-1 = assay: MIC by agar dilution, M. morganii DY-1; conditions: Morganella morganii, DY1, 17 h; M. morganii DY-1; agar dilution, Mueller-Hinton agar; read-out: Minimal Inhibitory Concentration (MIC)
Method: as §1

[3] = tested on: Ser. marcescens IFO 12648; assay: MIC by agar dilution, Ser. marcescens IFO 12648; conditions: Serratia marcescens, IFO12648, 17 h; Ser. marcescens IFO 12648; agar dilution, Mueller-Hinton agar; read-out: Minimal Inhibitory Concentration (MIC)
Method: as §1

Staph. aureus C-5216 = assay: MIC by agar dilution, Staph. aureus C-5216; conditions: Staphylococcus aureus, C5216, 17 h, Mueller-Hinton agar, read-out: Minimal Inhibitory Concentration (MIC)
Method: as §1

[4] = tested on: Ps. aeruginosa NCTC 10490; assay: MIC by agar dilution, Ps. aeruginosa NCTC 10490; conditions: Pseudomonas aeruginosa, NCTC10490, 17 h, Mueller-Hinton agar, read-out: Minimal Inhibitory Concentration (MIC)
Method: as §1

P. vulgaris NCTC 8313 = assay: MIC by agar dilution, P. vulgaris NCTC 8313; conditions: Proteus vulgaris, NCTC8313, 17 h; P. vulgaris NCTC 8313; agar dilution, Mueller-Hinton agar; read-out: Minimal Inhibitory Concentration (MIC)
Method: as §1

K. pneumoniae NCTC 9632 = assay: MIC by agar dilution, K. pneumoniae NCTC 9632; conditions: Klebsiella pneumoniae, NCTC9632, 17 h; K. pneumoniae NCTC 9632; agar dilution, Mueller-Hinton agar; read-out: Minimal Inhibitory Concentration (MIC)
Method: as §1

MIC (Prov. stuartii IFO 12930) | MIC (Staph. aureus C-57) | MIC (Ent. aerogenes IFO 12979) | MIC [1] | MIC (Staph. aureus ATCC 6538P) | MIC (Staph. aureus C-5113) | MIC (B. subtilis ATCC 6633) | MIC (E. coli DY-1) | MIC (Ent. cloacae IFO 13535) | MIC [2] | MIC (E. coli NIHJ JC-2) | MIC (Ps. aeruginosa DY-2) | MIC (Staph. aureus Smith) | MIC (E. coli No. 29) | MIC (M. morganii DY-1) | MIC [3] | MIC (Staph. aureus C-5216) | MIC [4] | MIC (P. vulgaris NCTC 8313) | MIC (K. pneumoniae NCTC 9632) | Structure (SMILES)
0.025 µg/mL (≈ 0.0448 µM) | 25 µg/mL (≈ 44.8 µM) | 0.025 µg/mL (≈ 0.0448 µM) | 1.56 µg/mL (≈ 2.8 µM) | 0.2 µg/mL (≈ 0.359 µM) | 6.25 µg/mL (≈ 11.2 µM) | 0.1 µg/mL (≈ 0.179 µM) | ≤ 0.006 µg/mL | 0.2 µg/mL (≈ 0.359 µM) | 0.2 µg/mL (≈ 0.359 µM) | 0.05 µg/mL (≈ 0.0897 µM) | 3.13 µg/mL (≈ 5.61 µM) | 1.56 µg/mL (≈ 2.8 µM) | 0.012 µg/mL (≈ 0.0215 µM) | 0.025 µg/mL (≈ 0.0448 µM) | 0.05 µg/mL (≈ 0.0897 µM) | 3.13 µg/mL (≈ 5.61 µM) | 0.78 µg/mL (≈ 1.4 µM) | 0.012 µg/mL (≈ 0.0215 µM) | 0.05 µg/mL (≈ 0.0897 µM) | CCON=C(C(=O)NC1C(=O)N2C(C(=O)[O-])=C(C[n+]3ccn4ccc(CO)c4c3)CSC12)c1csc(N)n1 (stereo not drawn) [Ex. 31, 7-β-[(Z)-2-(2-aminothiazol-4-yl)2-ethoxyiminoacetamido]-3-(8-hydroxymethylpyrrolo[1,2-a]pyrazinium-2-yl)methyl-3-cephem-4-carboxylate]
≤ 0.006 µg/mL | 25 µg/mL (≈ 44.8 µM) | 0.025 µg/mL (≈ 0.0448 µM) | 1.56 µg/mL (≈ 2.8 µM) | 0.39 µg/mL (≈ 0.699 µM) | 1.56 µg/mL (≈ 2.8 µM) | 0.1 µg/mL (≈ 0.179 µM) | 0.025 µg/mL (≈ 0.0448 µM) | 0.39 µg/mL (≈ 0.699 µM) | 0.1 µg/mL (≈ 0.179 µM) | 0.025 µg/mL (≈ 0.0448 µM) | 3.13 µg/mL (≈ 5.61 µM) | 0.78 µg/mL (≈ 1.4 µM) | 0.012 µg/mL (≈ 0.0215 µM) | 0.025 µg/mL (≈ 0.0448 µM) | 0.05 µg/mL (≈ 0.0897 µM) | 1.56 µg/mL (≈ 2.8 µM) | 0.2 µg/mL (≈ 0.359 µM) | 0.012 µg/mL (≈ 0.0215 µM) | 0.025 µg/mL (≈ 0.0448 µM) | CON=C(C(=O)NC1C(=O)N2C(C(=O)[O-])=C(C[n+]3ccn4c(C(=O)O)ccc4c3)CSC12)c1csc(N)n1 (stereo not drawn) [Ex. 17, 7-β-[(Z)-2-(2-aminothiazol-4-yl)-2-methoxyiminoacetamido]-3-(6-carboxypyrrolo[1,2-a]pyrazinium-2-yl)methyl-3-cephem-4-carboxylate]
≤ 0.006 µg/mL | 6.25 µg/mL (≈ 10.3 µM) | ≤ 0.006 µg/mL | 1.56 µg/mL (≈ 2.57 µM) | 0.1 µg/mL (≈ 0.165 µM) | 0.78 µg/mL (≈ 1.28 µM) | 0.1 µg/mL (≈ 0.165 µM) | ≤ 0.006 µg/mL | 0.2 µg/mL (≈ 0.329 µM) | 0.05 µg/mL (≈ 0.0823 µM) | 0.025 µg/mL (≈ 0.0412 µM) | 12.5 µg/mL (≈ 20.6 µM) | 0.39 µg/mL (≈ 0.642 µM) | 0.012 µg/mL (≈ 0.0198 µM) | 0.025 µg/mL (≈ 0.0412 µM) | 0.025 µg/mL (≈ 0.0412 µM) | 0.78 µg/mL (≈ 1.28 µM) | 1.56 µg/mL (≈ 2.57 µM) | 0.012 µg/mL (≈ 0.0198 µM) | 0.025 µg/mL (≈ 0.0412 µM) | CO/N=C(\C(=O)N[C@@H]1C(=O)N2C(C(=O)[O-])=C(C[n+]3ccn4c(Br)ccc4c3C)CS[C@H]12)c1nsc(N)n1 [Ex. 59, 7-β-[(Z)-2-(5-amino-1,2,4-thiadiazol-3-yl)-2-methoxyiminoacetamido]-3-(6-bromo-1-methylpyrrolo[1,2-a]pyrazinium-2-yl)methyl-3-cephem-4-carboxylate]
≤ 0.006 µg/mL | 25 µg/mL (≈ 45.6 µM) | 0.025 µg/mL (≈ 0.0456 µM) | 0.78 µg/mL (≈ 1.42 µM) | 0.2 µg/mL (≈ 0.365 µM) | 0.78 µg/mL (≈ 1.42 µM) | 0.2 µg/mL (≈ 0.365 µM) | ≤ 0.006 µg/mL | 0.05 µg/mL (≈ 0.0912 µM) | 0.05 µg/mL (≈ 0.0912 µM) | 0.012 µg/mL (≈ 0.0219 µM) | 1.56 µg/mL (≈ 2.85 µM) | 0.2 µg/mL (≈ 0.365 µM) | ≤ 0.006 µg/mL | ≤ 0.006 µg/mL | 0.012 µg/mL (≈ 0.0219 µM) | 0.2 µg/mL (≈ 0.365 µM) | 0.2 µg/mL (≈ 0.365 µM) | ≤ 0.006 µg/mL | 0.012 µg/mL (≈ 0.0219 µM) | CO/N=C(\C(=O)N[C@@H]1C(=O)N2C(C(=O)[O-])=C(C[n+]3ccn4ccc(Cl)c4c3)CS[C@H]12)c1csc(N)n1 [Ex. 33, 7-β-[(Z)-2-(2-aminothiazol-4-yl)2-methoxyiminoacetamido]-3-(8-chloropyrrolo[1,2-a]pyrazinium-2-yl)methyl-3-cephem-4-carboxylate]
